Each molecule was assayed against T1, human GYS1 (glycogen synthase) (Homo sapiens, UniProt P13807) (assay: Measurement of glycogen synthase activity). Conditions: concentration causing 50% increase in relative activity; 100% = compound of Example 1 of WO/2011/058154 at 10 μM; 10 mM Glucose-6-phosphate; 37° C. for 25 minutes (Examples 1 to 61 and 67 to 82) or 20 minutes (Examples 62 to 66); absorbance at 340 nm.
T1 construct: made in house; host or cells: HEK293T
T1 sequence (P13807 1-737): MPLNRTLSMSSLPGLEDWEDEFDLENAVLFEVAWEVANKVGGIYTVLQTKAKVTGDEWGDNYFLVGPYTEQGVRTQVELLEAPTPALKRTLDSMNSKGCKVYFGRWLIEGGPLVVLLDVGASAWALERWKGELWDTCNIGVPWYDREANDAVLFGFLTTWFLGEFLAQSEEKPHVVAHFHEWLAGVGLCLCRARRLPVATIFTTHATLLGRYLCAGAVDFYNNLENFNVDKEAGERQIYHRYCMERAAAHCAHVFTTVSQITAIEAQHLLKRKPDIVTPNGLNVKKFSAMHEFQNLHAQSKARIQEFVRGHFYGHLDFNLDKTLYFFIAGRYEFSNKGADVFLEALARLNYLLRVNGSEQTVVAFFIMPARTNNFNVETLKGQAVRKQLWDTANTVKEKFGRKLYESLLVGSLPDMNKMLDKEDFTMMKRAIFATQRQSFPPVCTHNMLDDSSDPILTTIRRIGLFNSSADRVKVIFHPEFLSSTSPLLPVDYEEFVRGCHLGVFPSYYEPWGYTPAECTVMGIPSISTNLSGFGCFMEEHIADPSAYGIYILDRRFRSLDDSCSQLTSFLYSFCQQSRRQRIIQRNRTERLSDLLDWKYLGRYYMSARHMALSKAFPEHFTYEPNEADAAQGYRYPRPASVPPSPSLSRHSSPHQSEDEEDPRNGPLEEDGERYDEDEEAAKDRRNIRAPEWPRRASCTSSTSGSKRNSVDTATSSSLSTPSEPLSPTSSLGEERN
Format: biochemical
Method in brief: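 Human GYS1 from transfected HEK293T cells (re-dissolved 16000×g pellet) was reacted at 37 °C for 25 or 20 min in glycylglycine pH 7.3 with glucose-6-phosphate, glycogen and UDP-glucose. PK/LDH-coupled NADH read-out at 340 nm; EC50 from activity relative to a reference activator at 10 μM final (100%).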

SMILES	EC50
CNS(=O)(=O)CCN(CC(=O)O)C(=O)c1cccc(COc2ccc(-c3cc(F)c(F)cc3SC)cc2)c1 [Example 56, 2-[[3-[[4-(4,5-Difluoro-2-methylsulfanyl-phenyl)phenoxy]methyl]benzoyl]-[2-(methylsulfamoyl)ethyl]amino]acetic Acid]	< 3 nM
CSc1cc(F)c(F)cc1-c1ccc(OCc2cccc(C(=O)N(CCS(=O)(=O)N(C)C)CC(=O)O)c2)cc1 [Example 59, 2-[[3-[[4-(4,5-Difluoro-2-methylsulfanyl-phenyl)phenoxy]methyl]benzoyl]-[2-(dimethylsulfamoyl)ethyl]amino]acetic Acid]	16 nM
CSc1cc(F)c(F)cc1-c1ccc(OCc2cccc(C(=O)N(CCc3noc(C)n3)CC(=O)O)c2)cc1 [Example 60, 2-[[3-[[4-(4,5-Difluoro-2-methylsulfanyl-phenyl)phenoxy]methyl]benzoyl]-[2-(5-methyl-1,2,4-oxadiazol-3-yl)ethyl]amino]acetic Acid]	11 nM
CSc1cc(F)c(F)cc1-c1ccc(OCc2cccc(C(=O)N3C[C@H](C(N)=O)C[C@H]3C(=O)O)c2)cc1 [Example 61, (2S,4R)-4-Carbamoyl-1-[3-[[4-(4,5-difluoro-2-methylsulfanyl-phenyl)phenoxy]methyl]benzoyl]pyrrolidine-2-carboxylic Acid]	19 nM
CSc1cc(F)c(F)cc1-c1ccc(OCc2cccc(C(=O)N3[C@@H](CO)CC[C@H]3C(=O)O)c2)cc1 [Example 64, (2S,5R)-1-[3-[[4-(4,5-Difluoro-2-methylsulfanyl-phenyl)phenoxy]methyl]benzoyl]-5-(hydroxymethyl)pyrrolidine-2-carboxylic Acid]	22 nM
COC[C@H]1CC[C@@H](C(=O)O)N1C(=O)c1cccc(COc2ccc(-c3cc(F)c(F)cc3SC)cc2)c1 [Example 65, (2S,5R)-1-[3-[[4-(4,5-Difluoro-2-methylsulfanyl-phenyl)phenoxy]methyl]benzoyl]-5-(methoxymethyl)pyrrolidine-2-carboxylic Acid]	18 nM
CSc1cc(F)c(F)cc1-c1ccc(OCc2cccc(C(=O)N(CC(=O)O)Cc3ccon3)c2)cc1 [Example 66, 2-[[3-[[4-(4,5-Difluoro-2-methylsulfanyl-phenyl)phenoxy]methyl]benzoyl]-(isoxazol-3-ylmethyl)amino]acetic Acid]	15 nM
CSc1cc(F)c(F)cc1-c1ccc(OCc2cccc(C(=O)N(CC(=O)O)Cc3coc(C)n3)c2)cc1 [Example 67, 2-[[3-[[4-(4,5-Difluoro-2-methylsulfanyl-phenyl)phenoxy]methyl]benzoyl]-[(2-methyloxazol-4-yl)methyl]amino]acetic Acid]	13 nM
CSc1cc(F)c(F)cc1-c1ccc(OCc2cccc(C(=O)N(CC(=O)O)Cc3nc(C)no3)c2)cc1 [Example 68, 2-[[3-[[4-(4,5-Difluoro-2-methylsulfanyl-phenyl)phenoxy]methyl]benzoyl]-[(3-methyl-1,2,4-oxadiazol-5-yl)methyl]amino]acetic Acid]	< 3 nM
CSc1cc(F)c(F)cc1-c1ccc(OCc2cccc(C(=O)N(CC(=O)O)Cc3noc(C)n3)c2)cc1 [Example 69, 2-[[3-[[4-(4,5-Difluoro-2-methylsulfanyl-phenyl)phenoxy]methyl]benzoyl]-[(5-methyl-1,2,4-oxadiazol-3-yl)methyl]amino]acetic Acid]	20 nM
CSc1cc(F)c(F)cc1-c1ccc(OCc2cccc(C(=O)N(CCn3cncn3)CC(=O)O)c2)cc1 [Example 70, 2-[[3-[[4-(4,5-Difluoro-2-methylsulfanyl-phenyl)phenoxy]methyl]benzoyl]-[2-(1,2,4-triazol-1-yl)ethyl]amino]acetic Acid]	21 nM
CSc1cc(F)c(F)cc1-c1ccc(OCc2cccc(C(=O)N(CC(=O)O)Cc3cscn3)c2)cc1 [Example 71, 2-[[3-[[4-(4,5-Difluoro-2-methylsulfanyl-phenyl)phenoxy]methyl]benzoyl]-(thiazol-4-ylmethyl)amino]acetic Acid]	17 nM
CSc1cc(F)c(F)cc1-c1ccc(OCc2cccc(C(=O)N3C(CC#N)CC[C@H]3C(=O)O)c2)cc1 (stereo partly drawn) [Example 72, (2S)-5-(Cyanomethyl)-1-[3-[[4-(4,5-difluoro-2-methylsulfanyl-phenyl)phenoxy]methyl]benzoyl]pyrrolidine-2-carboxylic Acid]	11 nM
CSc1cc(F)c(F)cc1-c1ccc(OCc2cccc(C(=O)N(CC(=O)O)Cc3nnc(C)o3)c2)cc1 [Example 73, 2-[[3-[[4-(4,5-Difluoro-2-methylsulfanyl-phenyl)phenoxy]methyl]benzoyl]-[(5-methyl-1,3,4-oxadiazol-2-yl)methyl]amino]acetic Acid]	15 nM
CSc1cc(F)c(F)cc1-c1ccc(OCc2cccc(C(=O)N(CC(=O)O)Cc3cn(C)cn3)c2)cc1 [Example 74, 2-[[3-[[4-(4,5-Difluoro-2-methylsulfanyl-phenyl)phenoxy]methyl]benzoyl]-[(1-methylimidazol-4-yl)methyl]amino]acetic Acid]	8 nM
N#CCCN(CC(=O)O)C(=O)c1cccc(COc2ccc(-c3cc(F)c(F)c4ccoc34)cc2)c1 [Example 75, 2-[2-Cyanoethyl-[3-[[4-(4,5-difluorobenzofuran-7-yl)phenoxy]methyl]benzoyl]amino]acetic Acid]	22 nM
CS(=O)(=O)CCCN(CC(=O)O)C(=O)c1cccc(COc2ccc(-c3cc(F)c(F)c4ccoc34)cc2)c1 [Example 77, 2-[[3-[[4-(4,5-Difluorobenzofuran-7-yl)phenoxy]methyl]benzoyl]-(3-methylsulfonylpropyl)amino]acetic Acid]	20 nM
CO[C@H]1CCN(C(=O)c2cccc(COc3ccc(-c4cc(F)c(F)c5ccoc45)cc3)c2)[C@@H]1C(=O)O [Example 78, (2S,3S)-1-[3-[[4-(4,5-Difluorobenzofuran-7-yl)phenoxy]methyl]benzoyl]-3-methoxy-pyrrolidine-2-carboxylic Acid]	20 nM
NC(=O)CCN(CC(=O)O)C(=O)c1cccc(COc2ccc(-c3cc(F)c(F)c4ccoc34)cc2)c1 [Example 79, 2-[(3-Amino-3-oxo-propyl)-[3-[[4-(4,5-difluorobenzofuran-7-yl)phenoxy]methyl]benzoyl]amino]acetic Acid]	22 nM
COC[C@H](C)N(CC(=O)O)C(=O)c1cccc(COc2ccc(-c3cc(F)c(F)c4ccoc34)cc2)c1 [Example 80, 2-[[3-[[4-(4,5-Difluorobenzofuran-7-yl)phenoxy]methyl]benzoyl]-[(1S)-2-methoxy-1-methyl-ethyl]amino]acetic Acid]	24 nM
CC(=O)N1CCC(CN(CC(=O)O)C(=O)c2cccc(COc3ccc(-c4cc(F)c(F)c5ccoc45)cc3)c2)CC1 [Example 81, 2-[(1-Acetyl-4-piperidyl)methyl-[3-[[4-(4,5-difluorobenzofuran-7-yl)phenoxy]methyl]benzoyl]amino]acetic Acid]	20 nM
O=C(O)CN(C(=O)c1cccc(COc2ccc(-c3cc(F)c(F)c4ccoc34)cc2)c1)C1CCNC1=O (stereo not shown) [Example 82, 2-[[3-[[4-(4,5-Difluorobenzofuran-7-yl)phenoxy]methyl]benzoyl]-(2-oxopyrrolidin-3-yl)amino]acetic Acid]	19 nM
